Values quoted from earlier work in US20050004105A1, “Treatment for a attention-deficit hyperactivity disorder” (priority 2003, published 2005).
pKi: −log10 of the molar value. Where a name gives a salt, the structure may show the parent alone. Read-outs that look alike come from different tables or passages of the source.

Key:
[1] = molecular target: 5-HT1B/1D receptor; conditions: [3H]5-CT […] or 2 nM in cortex; exemplary protocol; read-out: Ki of reference compound, 5-HT1B/1D binding assay; cited from earlier work
[2] = molecular target: 5-HT1B/1D receptor; conditions: [125I]iodocyanopindolol 0.15 nM in striatum; exemplary protocol; read-out: Ki of reference compound, 5-HT1B/1D binding assay; cited from earlier work
[3] = molecular target: α1 receptor; conditions: rat forebrain membranes, [3H]7-MeOxy-prazosin; exemplary protocol; read-out: Ki of reference compound, α1 binding assay; cited from earlier work

Compound: NCCc1c[nH]c2ccc(C(N)=O)cc12 [5-CT, 5-carboxyamidotryptamine]
- pKi [1]: 8.96 to 9.15

Compound: NCCc1c[nH]c2ccc(O)cc12 [5-HT]
- pKi [2]: ~7.86

Compound: Cc1ccc(N(CC2=NCCN2)c2cccc(O)c2)cc1 [phentolamine mesylate]
- pKi [3]: ~8.27
